Earlier results on two molecules are cited in patent US20060193783A1, “Low dose corticosteroid composition” (priority 2003, published 2006).

Each structure is given as a SMILES string.

For data set [1] the following is noted: used nasally.

Regarding `CCCC1O[C@@H]2C[C@H]3[C@@H]4CCC5=CC(=O)C=C[C@]5(C)[C@H]4[C@@H](O)C[C@]3(C)[C@]2(C(=O)CO)O1` (some centres unmarked) [Budesonide], the solubility in water result is on record as “virtually insoluble in water”. With `CN1CCCC1=O` [N-methyl pyrrolidone], the nasal irritation entry in data set [1] was “does not cause any nasal irritation”.
